Data: ChEMBL document CHEMBL4765356, “Synthesis and biological evaluation of thiophenylbenzofuran derivatives as potential P-glycoprotein inhibitors” (Eur J Med Chem, 2020)

What was measured:
[1] = Cytotoxicity against Flp-In-293 cells assessed as reduction in cell viability measured after 72 hrs by SRB assay; assay type: cell-based; conditions: Homo sapiens, Flp-In-293, 72 h
[2] = Cytotoxicity against Flp-In-293 cells expressing human ABCB1 assessed as reduction in cell viability measured after 72 hrs by SRB assay; assay type: ADME, cell-based; conditions: Flp-In-293, 72 h
HeLa = test: Cytotoxicity against human HeLa cells assessed as reduction in cell viability measured after 72 hrs by SRB assay; assay type: cell-based
[3] = Cytotoxicity against human KB-VIN cells assessed as reduction in cell viability measured after 72 hrs by SRB assay; assay type: cell-based; conditions: KBVIN

Measured: IC50

COc1ccc(CCN(C)CCCC(C#N)(c2ccc(OC)c(OC)c2)C(C)C)cc1OC (centres undefined)
> 50 µM: all assays above
